In patent US11459375B2, “Cyclic peptides for the treatment of Graves' disease” (advanceCOR GmbH, priority 2017, dated 2022):

Key:
[1] = assay type: physicochemical
Description: Peptide 836 is a 24-meric cyclic peptide corresponding to the eighth TSHR LRD loop, and peptide 829 (also 24-meric) to the first loop of the TSHR LRD.

[2] = system: Ad-TSHR-immunized mice; assay: thyroid size at end of experiment in Graves' disease mouse model; assay type: in vivo, BALB/c mice; conditions: 1 mg/kg IV 4-weekly
Protocol: Representative images are shown. In FIG. 4B, the effects of peptide therapy on thyroid sizes were investigated at the end of the experiment. The measurements were carried out in Ad-TSHR-immunized mice treated by either 4-weekly injections with vehicle (0.9% NaCl, “Graves' no therapy”, n=25 mice), or administrations of 1 mg/kg body weight of peptide of the invention 836 (12 mice), or of peptide 829 (13 mice), or of TSHR-Fc (18 mice), or of control peptide 835 (13 mice). In addition, age-matched immunologically naïve unimmunized mice (“healthy”, 19 animals) were investigated. The mean thyroid sizes in mm^3 are shown with SEM. Differences between groups were tested by AVOVA followed by post hoc LSD testing. ** indicates statistical significance (p<0.001) compared to the TSHR-immunized group treated with only NaCl (“Graves' no therapy”).
(§1) The study protocol used three 3-weekly immunizations (“initiation”) and followed by a “maintenance” phase with further regular 4-weekly boosts until the 9th immunisation, as described before (22). Mice were randomly assigned to therapeutic groups. Therapy (either 1 mg/kg body weight peptides or 0.9% NaCl vehicle control) was given 1 week after the 4th immunization by IV injection into a tail vein, and then continued at 4-weekly intervals, as described before for the treatment of anti-β1AR (16). The fusion protein TSHR-Fc was given IV at identical times at doses of 1 mg/kg, but had to be applied together with the histamine receptor blocker clemastin (Tavegil®) at a dose of 0.02 mg per mouse (25 g body weight) to avoid clinical symptoms of allergic reaction, which had been observed in initial pilot studies of TSHR-Fc administration in mice.
After euthanasia, dissection of the thyroid glands was performed under a stereomicroscope, as described before (22). Briefly, cross cuts at the level above the larynx and below the seventh cartilage ring were made and the glands with the tracheae and oesophagi were removed from the necks. Tissue blocks were kept in 4% neutral para-formaldehyde (PFA), washed in PBS 3 times and embedded in optimum cutting temperature (OCT) formulation (Tissue-Tek® O.C.T.™ compound, VWR Chemicals, Leuven, Belgium). Consecutive 5 μm-thick cross sections were cut at a fixed distance of 500 μm using a Leica microtome CM 1850 Cryostat (temperature at −19° C.) and mounted on Thermo Polysine slides (Thermo Scientific, Cat J2800AMNZ). […] Thyroid volumes (mm^3) were calculated from the sum of the areas of each section over the whole cutting region. Myocardial volumes (mm^3) were calculated in a similar way as described for thyroid glands from the sum of the areas of each section over whole cutting region (5 to 6 slides, depending on respective size of the hearts). […]

[3] = system: Ad-TSHR-immunized mice; assay: ECG heart rates in Graves' disease mouse model; assay type: in vivo, BALB/c mice; conditions: 1 mg/kg IV 4-weekly, ECG under anaesthesia
Protocol: (§2) In FIG. 7 the effect of the peptide therapy on heart rates at various times during the experiment (A), and on heart weights (B) and cardiac ventricular volumes (C) at the end of the experiment were evaluated in all animals. The measurements were carried out in Ad-TSHR-immunized mice treated by either 4-weekly injections with vehicle (0.9% NaCl, “Graves' no therapy”, n=25 mice), or administrations of 1 mg/kg body weight of peptide of the invention 836 (12 mice), or of peptide 829 (13 mice), or TSHR-Fc (18 mice). In addition, age-matched immunologically naïve unimmunized mice (“healthy”, 19 animals) were investigated. Data are represented as mean±SEM. Significance over time was tested by analysis of variance (ANOVA) of groups at given time points, and controlled by ANOVA for repeated measurements within one group, followed by LSD post-hoc testing. *p<0.05, and **p<0.005, compared to the TSHR-immunized group treated with only NaCl (“Graves' no therapy”).
When mice were subjected to anaesthesia for immunisation, their heart function was monitored with an electrocardiogram (ECG amplifier module, Harvard Apparatus, Hugo Sachs electronics) and recorded with a special software, which allows to determine the heart rate from the ECG reading (Haemodyn, Hugo Sachs electronics). ECG was also performed in anaesthesia before animals were euthanized for histological exam at the end of the study.

[4] = system: Ad-TSHR-immunized mice; assay: heart weights upon necropsy; assay type: in vivo, BALB/c mice; conditions: 1 mg/kg IV 4-weekly, necropsy at end of experiment
Protocol: as §2
Due to unavailability of some fine histological sections, analysis of this parameter in mice treated with other peptides could unfortunately not be completed.

[5] = system: Ad-TSHR-immunized mice; assay: serum thyroxin (T4) levels in Graves' disease mouse model; assay type: in vivo, BALB/c mice; conditions: 1 mg/kg IV 4-weekly, after start of therapy (week 11)
Protocol: In FIG. 5 the effects of peptide therapy on serum thyroxin levels were evaluated. The measurements were carried out in Ad-TSHR-immunized mice treated by either 4-weekly injections with vehicle (0.9% NaCl, “Graves' no therapy”, n=25 mice), or administrations of 1 mg/kg body weight of peptide of the invention 836 (12 mice), or of peptide 829 (13 mice), or TSHR-Fc (18 mice), or of control peptide 835 (13 mice). In addition, age-matched immunologically naïve unimmunized mice (“healthy”, 19 animals) were investigated. Data are represented as means±SEM. Significance over time was tested by analysis of variance (ANOVA) of groups at given time points, and controlled by ANOVA for repeated measurements within one group, followed by LSD post-hoc testing. *p<0.05, and **p<0.005, compared to the TSHR-immunized group treated with only NaCl (“Graves' no therapy”).
as §1
Total thyroxine (T4) was measured by immunoassay kit (#T4044T-100, Calbiotech Inc, Austin, Calif.) in duplicate determination.

## NAFQGLCNETLTLKLYNNGFTSVQ [peptide 835]
[1]
  solubility in water: easily soluble in water
[2]
  thyroid size: did not show any effects
[3]
  heart rate: did not show any effects
[4]
  heart weights: did not show any effects
[5]
  serum thyroxin (T4) levels: did not result in any effects
